Measurements from ChEMBL document CHEMBL4610050, “Development of novel NLRP3-XOD dual inhibitors for the treatment of gout” (Bioorg Med Chem Lett, 2020).
Active and inactive are the calls of the source. The rule behind the calls is not given here.

Tests used:
[1] = molecular target: T1, Xanthine dehydrogenase/oxidase (Homo sapiens, UniProt P47989); assay: Inhibition of xanthine oxidase (unknown origin)
[2] = molecular target: T1, Xanthine dehydrogenase/oxidase; assay: Competitive inhibition of xanthine oxidase (unknown origin) by Lineweaver-Burk plot analysis
[3] = molecular target: NACHT, LRR and PYD domains-containing protein 3 (Homo sapiens, UniProt Q96P20); assay: Inhibition of NLRP3 in human THP1 cells assessed as inhibition of MSU-induced IL-1beta production; format: cell-based, THP-1
[4] = tested on: Mus musculus; assay: Antiarthritic activity in potassium oxonate-induced hyperuricemia mouse model assessed as reduction in uric acid level in serum at 5 to 20 mg/kg; format: functional, organism-based
[5] = tested on: Mus musculus; assay: In vivo inhibition of xanthine oxidase in potassium oxonate-induced hyperuricemia mouse model assessed as reduction in enzyme activity in liver at 5 mg/kg relative to control; format: functional
[6] = tested on: Mus musculus; assay: In vivo inhibition of xanthine oxidase in potassium oxonate-induced hyperuricemia mouse model assessed as reduction enzyme activity in liver at 10 mg/kg relative to control; format: functional
[7] = tested on: Mus musculus; assay: In vivo inhibition of xanthine oxidase in potassium oxonate-induced hyperuricemia mouse model assessed as reduction in enzyme activity in liver at 20 mg/kg relative to control; format: functional
[8] = tested on: Rattus norvegicus; assay: Antiarthritic activity against MSU-induced acute gout arthritis rat model assessed as degree of ankle joint swelling at 5 mg/kg after 2 hrs (reference value: 7.5 +/- 1.6); format: functional
[9] = tested on: Rattus norvegicus; assay: Antiarthritic activity against MSU-induced acute gout arthritis rat model assessed as degree of ankle joint swelling at 10 mg/kg after 2 hrs (reference value: 7.5 +/- 1.6); format: functional
[10] = tested on: Rattus norvegicus; assay: Antiarthritic activity against MSU-induced acute gout arthritis rat model assessed as degree of ankle joint swelling at 20 mg/kg after 2 hrs (reference value: 7.5 +/- 1.6); format: functional
[11] = tested on: Rattus norvegicus; assay: Antiarthritic activity against MSU-induced acute gout arthritis rat model assessed as degree of ankle joint swelling at 5 mg/kg after 4 hrs (reference value: 8.8 +/- 1.7); format: functional
[12] = tested on: Rattus norvegicus; assay: Antiarthritic activity against MSU-induced acute gout arthritis rat model assessed as degree of ankle joint swelling at 10 mg/kg after 4 hrs (reference value: 8.8 +/- 1.7); format: functional
[13] = tested on: Rattus norvegicus; assay: Antiarthritic activity against MSU-induced acute gout arthritis rat model assessed as degree of ankle joint swelling at 20 mg/kg after 4 hrs (reference value: 8.8 +/- 1.7); format: functional
[14] = tested on: Rattus norvegicus; assay: Antiarthritic activity against MSU-induced acute gout arthritis rat model assessed as degree of ankle joint swelling at 5 mg/kg after 8 hrs (reference value: 7.8 +/- 1.6); format: functional
[15] = tested on: Rattus norvegicus; assay: Antiarthritic activity against MSU-induced acute gout arthritis rat model assessed as degree of ankle joint swelling at 10 mg/kg after 8 hrs (reference value: 7.8 +/- 1.6); format: functional
[16] = tested on: Rattus norvegicus; assay: Antiarthritic activity against MSU-induced acute gout arthritis rat model assessed as degree of ankle joint swelling at 20 mg/kg after 8 hrs (reference value: 7.8 +/- 1.6); format: functional
[17] = tested on: Rattus norvegicus; assay: Antiarthritic activity against MSU-induced acute gout arthritis rat model assessed as degree of ankle joint swelling at 5 mg/kg after 12 hrs (reference value: 6.6 +/- 1.5); format: functional
[18] = tested on: Rattus norvegicus; assay: Antiarthritic activity against MSU-induced acute gout arthritis rat model assessed as degree of ankle joint swelling at 10 mg/kg after 12 hrs (reference value: 6.6 +/- 1.5); format: functional
[19] = tested on: Rattus norvegicus; assay: Antiarthritic activity against MSU-induced acute gout arthritis rat model assessed as degree of ankle joint swelling at 20 mg/kg after 12 hrs (reference value: 6.6 +/- 1.5); format: functional
[20] = tested on: Rattus norvegicus; assay: Antiarthritic activity against MSU-induced acute gout arthritis rat model assessed as degree of ankle joint swelling at 5 mg/kg after 24 hrs (reference value: 5.6 +/- 1.8); format: functional
[21] = tested on: Rattus norvegicus; assay: Antiarthritic activity against MSU-induced acute gout arthritis rat model assessed as degree of ankle joint swelling at 10 mg/kg after 24 hrs (reference value: 5.6 +/- 1.8); format: functional
[22] = tested on: Rattus norvegicus; assay: Antiarthritic activity against MSU-induced acute gout arthritis rat model assessed as degree of ankle joint swelling at 20 mg/kg after 24 hrs (reference value: 5.6 +/- 1.8); format: functional
[23] = tested on: Rattus norvegicus; assay: Antiarthritic activity against MSU-induced acute gout arthritis rat model assessed as degree of ankle joint swelling at 5 mg/kg after 48 hrs (reference value: 3.4 +/- 0.5); format: functional
[24] = tested on: Rattus norvegicus; assay: Antiarthritic activity against MSU-induced acute gout arthritis rat model assessed as degree of ankle joint swelling at 10 mg/kg after 48 hrs (reference value: 3.4 +/- 0.5); format: functional
[25] = tested on: Rattus norvegicus; assay: Antiarthritic activity against MSU-induced acute gout arthritis rat model assessed as degree of ankle joint swelling at 20 mg/kg after 48 hrs (reference value: 3.4 +/- 0.5); format: functional
[26] = organism: Rattus norvegicus; assay: Down regulation of MSU-induced NLRP3 protein expression in synovial tissue of MSU-induced acute gout arthritis rat model by western blot analysis; format: functional, organism-based
[27] = organism: Rattus norvegicus; assay: Down regulation of MSU-induced ASC protein expression in synovial tissue of MSU-induced acute gout arthritis rat model by western blot analysis; format: functional, organism-based
[28] = organism: Rattus norvegicus; assay: Down regulation of MSU-induced caspase-1 protein expression in synovial tissue of MSU-induced acute gout arthritis rat model by western blot analysis; format: functional, organism-based
[29] = tested on: Mus musculus; assay: In vivo inhibition of xanthine oxidase in mouse assessed as reduction of enzyme activity in liver at 5 mg/kg relative to control; format: functional
[30] = tested on: Mus musculus; assay: In vivo inhibition of xanthine oxidase in mouse assessed as reduction in enzyme activity in liver at 10 mg/kg relative to control; format: functional
[31] = tested on: Mus musculus; assay: In vivo inhibition of xanthine oxidase in mouse assessed as reduction in enzyme activity in liver at 20 mg/kg relative to control; format: functional
[32] = Cytotoxicity against human THP-1 cells; format: cell-based
[33] = tested on: Mus musculus; assay: Antiarthritic activity in potassium oxonate-induced hyperuricemia mouse model assessed as reduction in uric acid level in serum at 10 mg/kg; format: functional, organism-based
[34] = organism: Rattus norvegicus; assay: Antiarthritic activity against MSU-induced acute gout arthritis rat model assessed as degree of ankle joint swelling after 2 hrs (reference value: 7.5 +/- 1.6); format: functional
[35] = organism: Rattus norvegicus; assay: Antiarthritic activity against MSU-induced acute gout arthritis rat model assessed as degree of ankle joint swelling after 4 hrs (reference value: 8.8 +/- 1.7); format: functional
[36] = organism: Rattus norvegicus; assay: Antiarthritic activity against MSU-induced acute gout arthritis rat model assessed as degree of ankle joint swelling after 8 hrs (reference value: 7.8 +/- 1.6); format: functional
[37] = organism: Rattus norvegicus; assay: Antiarthritic activity against MSU-induced acute gout arthritis rat model assessed as degree of ankle joint swelling after 24 hrs (reference value: 5.6 +/- 1.8); format: functional
[38] = organism: Rattus norvegicus; assay: Antiarthritic activity in rat at model of acute gout arthritis assessed as effect on MSU-induced ankle joint swelling after 24 hrs (reference value: 5.6 +/- 1.8); format: functional
[39] = organism: Rattus norvegicus; assay: Antiarthritic activity against MSU-induced acute gout arthritis rat model assessed as degree of ankle joint swelling after 48 hrs (reference value: 3.4 +/- 0.5); format: functional
[40] = tested on: Rattus norvegicus; assay: Inhibition of MSU-induced NLRP3 protein expression in synovial tissue of MSU-induced acute gout arthritis rat model at 10 mg/kg by western blot analysis; format: functional, organism-based
[41] = tested on: Rattus norvegicus; assay: Inhibition of MSU-induced ASC protein expression in synovial tissue of MSU-induced acute gout arthritis rat model at 10 mg/kg by western blot analysis; format: functional, organism-based
[42] = tested on: Rattus norvegicus; assay: Inhibition of MSU-induced caspase-1 protein expression in synovial tissue of MSU-induced acute gout arthritis rat model at 10 mg/kg by western blot analysis; format: functional, organism-based

T1 sequence (P47989 whole entry): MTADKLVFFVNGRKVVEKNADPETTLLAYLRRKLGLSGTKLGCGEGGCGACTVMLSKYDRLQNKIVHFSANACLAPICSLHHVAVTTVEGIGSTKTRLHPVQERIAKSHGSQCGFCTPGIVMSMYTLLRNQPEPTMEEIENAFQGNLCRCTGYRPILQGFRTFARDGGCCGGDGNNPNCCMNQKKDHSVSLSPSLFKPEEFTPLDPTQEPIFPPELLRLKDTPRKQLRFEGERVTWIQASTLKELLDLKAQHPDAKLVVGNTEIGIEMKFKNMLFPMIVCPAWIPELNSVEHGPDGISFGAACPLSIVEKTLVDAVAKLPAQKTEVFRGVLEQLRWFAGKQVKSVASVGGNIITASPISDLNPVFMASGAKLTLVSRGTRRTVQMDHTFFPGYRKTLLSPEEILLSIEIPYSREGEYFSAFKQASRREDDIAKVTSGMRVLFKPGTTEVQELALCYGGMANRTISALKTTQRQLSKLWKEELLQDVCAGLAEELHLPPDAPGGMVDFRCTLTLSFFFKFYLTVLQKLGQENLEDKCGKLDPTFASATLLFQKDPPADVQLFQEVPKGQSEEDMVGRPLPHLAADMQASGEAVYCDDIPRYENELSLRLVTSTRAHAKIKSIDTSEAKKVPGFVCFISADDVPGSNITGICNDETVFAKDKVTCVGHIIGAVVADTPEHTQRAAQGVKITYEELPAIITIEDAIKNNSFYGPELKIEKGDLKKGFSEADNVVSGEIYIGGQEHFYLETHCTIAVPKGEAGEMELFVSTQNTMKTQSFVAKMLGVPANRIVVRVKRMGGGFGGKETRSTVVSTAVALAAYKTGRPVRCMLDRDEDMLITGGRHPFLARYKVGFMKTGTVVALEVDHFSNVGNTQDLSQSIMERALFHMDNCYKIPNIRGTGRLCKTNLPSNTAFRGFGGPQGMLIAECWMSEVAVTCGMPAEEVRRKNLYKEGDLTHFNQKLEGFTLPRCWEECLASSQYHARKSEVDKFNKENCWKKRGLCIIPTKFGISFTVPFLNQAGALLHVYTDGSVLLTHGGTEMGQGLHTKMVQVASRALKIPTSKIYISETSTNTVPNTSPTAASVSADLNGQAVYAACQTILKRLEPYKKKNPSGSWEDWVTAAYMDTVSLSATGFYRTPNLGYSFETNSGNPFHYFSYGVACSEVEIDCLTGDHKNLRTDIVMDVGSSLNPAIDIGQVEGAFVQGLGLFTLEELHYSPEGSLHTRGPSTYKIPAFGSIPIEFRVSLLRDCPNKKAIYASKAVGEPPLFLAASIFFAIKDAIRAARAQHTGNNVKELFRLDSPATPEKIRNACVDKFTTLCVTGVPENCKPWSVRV
Sequence of NACHT, LRR and PYD domains-containing protein 3 (Q96P20 whole entry, the tested form may be a part): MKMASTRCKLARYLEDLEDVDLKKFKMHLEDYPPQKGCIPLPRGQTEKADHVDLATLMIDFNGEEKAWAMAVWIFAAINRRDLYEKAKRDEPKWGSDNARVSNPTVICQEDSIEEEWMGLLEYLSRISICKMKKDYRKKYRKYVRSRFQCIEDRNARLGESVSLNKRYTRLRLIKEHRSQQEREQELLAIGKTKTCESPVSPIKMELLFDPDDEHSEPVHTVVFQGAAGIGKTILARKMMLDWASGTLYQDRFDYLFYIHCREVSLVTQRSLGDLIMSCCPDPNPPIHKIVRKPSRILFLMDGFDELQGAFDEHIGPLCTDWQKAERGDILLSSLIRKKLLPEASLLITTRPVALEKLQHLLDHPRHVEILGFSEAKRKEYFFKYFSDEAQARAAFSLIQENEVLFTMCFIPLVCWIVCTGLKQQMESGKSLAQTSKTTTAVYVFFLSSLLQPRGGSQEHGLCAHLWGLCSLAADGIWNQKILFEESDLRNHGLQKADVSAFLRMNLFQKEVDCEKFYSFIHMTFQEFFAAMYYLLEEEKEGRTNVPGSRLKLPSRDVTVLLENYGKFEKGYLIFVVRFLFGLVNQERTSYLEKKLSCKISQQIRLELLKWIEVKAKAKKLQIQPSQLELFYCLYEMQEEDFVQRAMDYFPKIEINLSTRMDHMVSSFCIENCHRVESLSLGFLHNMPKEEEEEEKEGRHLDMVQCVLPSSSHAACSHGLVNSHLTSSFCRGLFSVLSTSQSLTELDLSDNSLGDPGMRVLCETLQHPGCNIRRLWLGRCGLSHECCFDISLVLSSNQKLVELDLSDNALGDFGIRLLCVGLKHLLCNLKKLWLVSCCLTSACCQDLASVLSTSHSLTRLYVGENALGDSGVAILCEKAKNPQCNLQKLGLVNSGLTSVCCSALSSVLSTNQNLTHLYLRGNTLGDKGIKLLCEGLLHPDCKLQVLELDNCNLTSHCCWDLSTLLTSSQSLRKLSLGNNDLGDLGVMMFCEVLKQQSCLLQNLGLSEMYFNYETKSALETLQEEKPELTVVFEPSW

`C/C(=N\NS(=O)(=O)c1ccc(Br)cc1)c1nc2ccccc2o1` gave an IC50 [1] of over 50 µM.

`COc1ccc(C(=O)O/N=C(\C)c2nc3ccccc3[nH]2)cc1` showed an IC50 [1] of over 50 µM.

In the case of `COc1ccc(S(=O)(=O)N/N=C(\C)c2nc3ccccc3o2)cc1`, the IC50 [1] is reported as 4.2 µM, the “inhibition (INH)” value [2] is reported as “Active” and the IC50 [3] is reported as 7.5 µM. The Activity [4] was “Active”, the inhibition in vivo at 5 mg/kg [5] was 19.6% and the inhibition in vivo at 10 mg/kg [6] was 30.6%. It also gave an inhibition in vivo at 20 mg/kg [7] of 44.1%, an Activity [8] of 6.5 and an Activity [9] of 6. The Activity [10] was 5.5, the Activity [11] was 6.8 and the Activity [12] was 6.1. For the same molecule, the Activity [13] was 5, the Activity [14] was 5.9 and the Activity [15] was 5.4. It also gave an Activity [16] of 4.2, an Activity [17] of 6 and an Activity [18] of 4.5. The Activity [19] was 3.9, the Activity [20] was 4.9 and the Activity [21] was 2.5. It also gave an Activity [22] of 2.2, an Activity [23] of 2.9 and an Activity [24] of 1.8. The Activity [25] was 1.6, the inhibition [26] was “Dose-dependent effect” and the inhibition [27] was “Dose-dependent effect”. For the same molecule, the inhibition [28] was “Dose-dependent effect”, the inhibition in vivo at 5 mg/kg [29] was 3.6% and the inhibition in vivo at 10 mg/kg [30] was 4.6%. The inhibition in vivo at 20 mg/kg [31] was 7.6% and the CC50 [32] was 250 µM.

For `CCCS(=O)(=O)N/N=C(\C)c1nc2ccccc2[nH]1`, the IC50 [1] was over 50 µM.

Work on `C/C(=N\NS(=O)(=O)c1ccccc1)c1nc2ccccc2o1` yielded an IC50 [1] of over 50 µM.

With `Oc1ncnc2[nH]ncc12` [ALLOPURINOL] the Activity [33] was “Active”, the inhibition in vivo at 10 mg/kg [6] was 47.9% and the inhibition in vivo at 10 mg/kg [30] was 25.3%.

Work on `C/C(=N\NS(=O)(=O)c1ccc(Br)cc1)c1nc2ccccc2[nH]1` yielded an IC50 [1] of over 50 µM.

With `C/C(=N\OC(=O)Cc1ccccc1)c1nc2ccccc2[nH]1` the IC50 [1] was over 50 µM.

In the case of `C/C(=N\NS(=O)(=O)c1cccc([N+](=O)[O-])c1)c1nc2ccccc2o1`, the IC50 [1] is reported as over 50 µM.

With `CCCCS(=O)(=O)N/N=C(\C)c1nc2ccccc2o1` the IC50 [1] was over 50 µM.

For `O=C(/C=C/c1ccc(O)cc1)c1ccc(O)cc1O` [ISOLIQUIRITIGENIN], the IC50 [3] was 10.1 µM and the CC50 [32] was 250 µM.

`C/C(=N\NS(=O)(=O)c1ccc([N+](=O)[O-])cc1)c1nc2ccccc2o1` showed an IC50 [1] of over 50 µM.

`C/C(=N\NS(=O)(=O)c1ccc([N+](=O)[O-])cc1)c1nc2ccccc2[nH]1` gave an IC50 [1] of over 50 µM.

Work on `C/C(=N\NS(=O)(=O)c1ccc(C)cc1)c1nc2ccccc2o1` yielded a CC50 [32] of 250 µM.

With `COc1cc2c(c(OC)c1OC)-c1ccc(OC)c(=O)cc1[C@@H](NC(C)=O)CC2` [COLCHICINE] the Activity [34] was 4.9, the Activity [35] was 4.3 and the Activity [36] was 4. It also gave an Activity [37] of 3.5, an Activity [38] of 2.8 and an Activity [39] of 2. For the same molecule, the inhibition [40] was “Active”, the inhibition [41] was “Active” and the inhibition [42] was “Active”.

In the case of `C/C(=N\NS(=O)(=O)c1ccccc1)c1nc2ccccc2[nH]1`, the IC50 [1] is reported as over 50 µM.

With `COc1ccc(S(=O)(=O)N/N=C(\C)c2nc3ccccc3[nH]2)cc1` the IC50 [1] was over 50 µM.
